Test results as given in patent EP1247803A2, “Indolinone compounds suitable for modulation of protein kinases” (Sugen, Inc., priority 1996, dated 1998).

Columns and labels:
FLK-1 receptor = biological target: T1, FLK-1 receptor (Mus musculus, UniProt P35918); experiment: FLK-1 ELISA (kinase activity of the FLK-1 receptor in FLK-1/NIH3T3 cells, VEGF stimulated); type: cell-based
T1 construct: expressed in transfected cells; host or cells: NIH3T3 C7#3
Outline: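 FLK-1-expressing NIH3T3 C7#3 cells, starved overnight in 0.1% FBS medium, were treated with compounds at a 1:200 final dilution (0.5% DMSO) for 2 h at 37 °C, with VEGF stimulation. FLK-1 kinase activity was read by ELISA on anti-rabbit IgG plates using affinity-purified anti-FLK-1 antiserum.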

PDGF-R = PDGF-R (Homo sapiens, UniProt P09619); experiment: PDGF-R ELISA; type: cell-based
Chain of PDGF-R (P09619 33-1106, species assumed): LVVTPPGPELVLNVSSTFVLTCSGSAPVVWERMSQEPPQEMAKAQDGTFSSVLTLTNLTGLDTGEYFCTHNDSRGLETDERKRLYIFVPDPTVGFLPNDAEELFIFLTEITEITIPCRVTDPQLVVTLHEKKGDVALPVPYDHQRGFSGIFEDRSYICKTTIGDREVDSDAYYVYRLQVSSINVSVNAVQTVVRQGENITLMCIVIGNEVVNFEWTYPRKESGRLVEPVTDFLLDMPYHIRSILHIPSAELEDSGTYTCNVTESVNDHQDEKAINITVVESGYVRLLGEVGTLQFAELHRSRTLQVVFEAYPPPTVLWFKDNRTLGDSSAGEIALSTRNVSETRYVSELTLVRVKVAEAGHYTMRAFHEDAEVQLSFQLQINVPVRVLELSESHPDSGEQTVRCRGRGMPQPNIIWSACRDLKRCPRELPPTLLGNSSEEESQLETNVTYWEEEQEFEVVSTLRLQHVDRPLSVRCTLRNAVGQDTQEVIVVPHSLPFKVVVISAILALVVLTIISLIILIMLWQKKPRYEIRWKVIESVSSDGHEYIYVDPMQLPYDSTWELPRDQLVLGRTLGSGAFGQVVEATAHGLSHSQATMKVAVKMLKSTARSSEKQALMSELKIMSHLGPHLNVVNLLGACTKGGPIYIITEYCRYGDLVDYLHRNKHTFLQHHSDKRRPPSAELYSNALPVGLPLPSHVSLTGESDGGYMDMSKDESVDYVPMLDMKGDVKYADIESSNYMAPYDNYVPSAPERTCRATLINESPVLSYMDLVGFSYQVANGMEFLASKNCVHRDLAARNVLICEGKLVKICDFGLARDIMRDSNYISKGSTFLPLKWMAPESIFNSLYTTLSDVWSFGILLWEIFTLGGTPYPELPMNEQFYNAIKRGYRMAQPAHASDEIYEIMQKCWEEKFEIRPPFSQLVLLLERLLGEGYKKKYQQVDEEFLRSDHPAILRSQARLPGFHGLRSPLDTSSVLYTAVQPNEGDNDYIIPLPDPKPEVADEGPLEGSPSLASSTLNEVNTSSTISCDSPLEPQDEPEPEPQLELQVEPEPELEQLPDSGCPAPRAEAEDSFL
Excerpt: A PDGF-R ELISA is described in International Patent Publication No. WO 96/40116, published December 19, 1996 by Tang et al.

MET = MET biochemical kinase assay; design: species or system human; concentration or dose not given beside the values
Outline: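 MET from cell lysates captured on ELISA plates via rabbit anti-MET cytoplasmic-domain antibody; compounds added and kinase reaction run in ATP and divalent-metal buffer. Receptor phosphotyrosine detected with HRP-conjugated anti-phosphotyrosine antibody and TMB colorimetry.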

T1 sequence (P35918 20-1345): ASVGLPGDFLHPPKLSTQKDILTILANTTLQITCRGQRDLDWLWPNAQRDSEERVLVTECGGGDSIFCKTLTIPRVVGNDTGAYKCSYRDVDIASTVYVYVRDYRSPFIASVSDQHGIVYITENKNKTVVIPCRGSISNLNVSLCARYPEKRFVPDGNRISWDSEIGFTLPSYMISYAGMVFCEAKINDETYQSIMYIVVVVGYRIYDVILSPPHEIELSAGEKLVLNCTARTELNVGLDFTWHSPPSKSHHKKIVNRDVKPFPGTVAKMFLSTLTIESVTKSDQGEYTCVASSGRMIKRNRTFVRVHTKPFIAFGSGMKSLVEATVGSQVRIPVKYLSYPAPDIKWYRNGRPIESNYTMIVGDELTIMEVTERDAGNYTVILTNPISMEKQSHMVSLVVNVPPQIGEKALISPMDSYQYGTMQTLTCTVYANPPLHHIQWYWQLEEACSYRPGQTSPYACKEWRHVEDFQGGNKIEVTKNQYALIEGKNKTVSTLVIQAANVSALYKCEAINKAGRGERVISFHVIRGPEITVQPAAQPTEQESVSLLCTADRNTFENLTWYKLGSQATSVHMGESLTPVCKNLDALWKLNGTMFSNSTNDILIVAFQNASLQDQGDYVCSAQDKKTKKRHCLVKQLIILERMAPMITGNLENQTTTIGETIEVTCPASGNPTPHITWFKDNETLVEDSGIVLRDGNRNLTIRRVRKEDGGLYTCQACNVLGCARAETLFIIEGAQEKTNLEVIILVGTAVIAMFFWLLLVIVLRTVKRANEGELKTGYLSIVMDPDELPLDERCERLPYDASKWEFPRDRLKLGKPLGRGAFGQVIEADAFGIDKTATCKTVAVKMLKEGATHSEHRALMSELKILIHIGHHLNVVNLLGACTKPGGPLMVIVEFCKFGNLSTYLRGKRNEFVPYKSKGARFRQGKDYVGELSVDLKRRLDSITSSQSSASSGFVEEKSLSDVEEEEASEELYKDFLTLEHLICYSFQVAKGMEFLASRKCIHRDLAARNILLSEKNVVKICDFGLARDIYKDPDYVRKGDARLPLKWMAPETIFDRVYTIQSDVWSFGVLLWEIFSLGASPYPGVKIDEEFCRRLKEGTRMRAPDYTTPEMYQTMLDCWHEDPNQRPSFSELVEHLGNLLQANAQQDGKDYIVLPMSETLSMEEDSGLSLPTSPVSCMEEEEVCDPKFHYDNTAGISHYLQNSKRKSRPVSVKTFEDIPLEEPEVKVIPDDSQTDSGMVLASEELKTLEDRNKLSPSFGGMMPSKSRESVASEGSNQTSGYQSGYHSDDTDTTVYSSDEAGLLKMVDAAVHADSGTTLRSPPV

| Compound | Fik Kinase %Inhibition (FLK-1 receptor) | PDGF Kinase %Inhibition (PDGF-R) | Met Kinase % Inhibition (MET) |
| --- | --- | --- | --- |
| COc1cc(C)cc(O)c1C=C1C(=O)Nc2ccc(I)cc21 [10725/B06] | -0.5% | 31.3% | 53.3% |
| CNS(=O)(=O)c1ccc2c(c1)C(=Cc1cc3ccccc3o1)C(=O)N2 [10724/D07] | -2.6% | 7.0% | 38.1% |
| CNS(=O)(=O)c1ccc2c(c1)C(=Cc1sc3scc(C)c3c1C)C(=O)N2 [10724/D11] | 14.9% | 29.3% | 20.3% |
| CCc1ccc(C=C2C(=O)Nc3ccc(S(=O)(=O)NC)cc32)o1 [10724/D10] | 3.7% | 38.3% | 59.6% |
| Cc1c(Br)ccc2c1C(=Cc1ccc(O)c([N+](=O)[O-])c1)C(=O)N2 [10724/C03] | -20.3% | 4.3% | 68.7% |
| O=C1Nc2ccc(CCCl)cc2C1=Cc1cc2ccccc2o1 [10724/G07] | -1.9% | -41.6% | 2.3% |
| Cc1cc(C=C2C(=O)Nc3ccc(I)cc32)[nH]n1 [10725/B05] | -61.0% | 44.7% | 68.3% |
| O=C1Nc2ccc(S(=O)(=O)Nc3ccc(C(F)(F)F)cc3)cc2C1=Cc1cc2ccccc2o1 [10724/E07] | -3.6% | 0.1% | 46.8% |
| O=C1Nc2ccc(S(=O)(=O)Nc3ccc(C(F)(F)F)cc3)cc2C1=Cc1cccn1-c1ccc(Cl)cc1 [10724/E09] | 14.3% | 21.0% | 27.0% |
| CNS(=O)(=O)c1ccc2c(c1)C(=Cc1cc3c4c(c1O)CCCN4CCC3)C(=O)N2 [10724/D05] | -1.6% | 35.6% | 36.1% |
| CC(C)c1cc(C=C2C(=O)Nc3c(Br)cc(Br)cc32)cc(C(C)C)c1O [10724/A06] | -3.7% | 30.7% | 46.8% |
| CC(C)c1cc(C=C2C(=O)Nc3ccc(CCCl)cc32)cc(C(C)C)c1O [10724/G06] | 0.1% | -6.9% | 20.3% |
| O=C1Nc2ccc(I)cc2C1=Cc1cccn1-c1ccc(Cl)cc1 [10724/B09] | 3.5% | 25.8% | 43.8% |
| O=CN1CCN(c2ccc(C=C3C(=O)Nc4ccc(I)cc43)cc2)CC1 [10725/B07] | 24.6% | 100.8% | 74.0% |
| O=CN1CCN(c2ccc(C=C3C(=O)Nc4c(Br)cc(Br)cc43)cc2)CC1 [10725/A07] | -12.3% | 17.9% | 59.3% |
| Cc1c(Br)ccc2c1C(=Cc1cccn1-c1ccc(Cl)cc1)C(=O)N2 [10724/C09] | 9.3% | 20.3% | 5.3% |
| O=C1Nc2c(Br)cc(Br)cc2C1=Cc1cc2c3c(c1O)CCCN3CCC2 [10724/A05] | -15.2% | 5.0% | 68.4% |
| Cc1c(Br)ccc2c1C(=Cc1cc(C(C)C)c(O)c(C(C)C)c1)C(=O)N2 [10724/C06] | -1.5% | 34.9% | 15.4% |
| O=C1Nc2c(Br)cc(Br)cc2C1=Cc1sccc1Br [10725/A02] | -2.0% | -14.2% | 46.6% |
| Cc1[nH]c(C=C2C(=O)Nc3ccc(S(=O)(=O)Nc4ccc(C(F)(F)F)cc4)cc32)c(Br)c1Br [10717/E11] | 8.9% | – | 75.1% |
| Cc1csc2sc(C=C3C(=O)Nc4ccc(I)cc43)c(C)c12 [10724/B11] | 9.0% | 23.0% | 43.0% |
| O=C1Nc2ccc(I)cc2C1=Cc1sccc1Br [10725/B02] | -2.8% | -7.5% | 66.9% |
| O=C1Nc2ccc(S(=O)(=O)N3CCOCC3)cc2C1=Cc1cccs1 [10717/F03] | 0.5% | – | 42.8% |
| Cc1csc2sc(C=C3C(=O)Nc4ccc(S(=O)(=O)Nc5ccc(C(F)(F)F)cc5)cc43)c(C)c12 [10724/E11] | 5.1% | 5.0% | 39.3% |
| O=C1Nc2ccc(S(=O)(=O)Nc3ccc(C(F)(F)F)cc3)cc2C1=Cc1ccc(O)c([N+](=O)[O-])c1 [10724/E03] | 10.6% | 14.7% | 85.8% |

| Compound | Fik Kinase %Inhibition (FLK-1 receptor) | PDGF Kinase %Inhibition (PDGF-R) | Met Kinase % Inhibition (MET) |
| --- | --- | --- | --- |
| CNS(=O)(=O)c1ccc2c(c1)C(=Cc1ccc(O)c([N+](=O)[O-])c1)C(=O)N2 [10724/D03] | 0.1% | -15.2% | 18.2% |
| O=C1Nc2ccc(CCCl)cc2C1=Cc1cc2c3c(c1O)CCCN3CCC2 [10724/G05] | -0.1% | -10.3% | 61.0% |
| Cc1cc(C=C2C(=O)Nc3c(Br)cc(Br)cc32)[nH]n1 [10725/A05] | -13.9% | 13.1% | 47.5% |
| CNS(=O)(=O)c1ccc2c(c1)C(=Cc1cccn1-c1ccc(Cl)cc1)C(=O)N2 [10724/D09] | 0.9% | 18.9% | 16.1% |
| O=C1Nc2ccc(CCCl)cc2C1=Cc1cccc(Br)c1 [10723/G10] | . 3.5% | -27.8% | 40.7% |
| CCc1ccc(C=C2C(=O)Nc3ccc(Br)c(C)c32)o1 [10724/C10] | -2.3% | 27.2% | 91.2% |
| O=C1Nc2ccc(S(=O)(=O)N3CCOCC3)cc2C1=Cc1ccc(F)cc1 [10717/F05] | 3.2% | – | 21.5% |
| CCc1ccc(C=C2C(=O)Nc3ccc(CCCl)cc32)o1 [10724/G10] | 7.0% | -15.9% | 62.8% |
| Cc1c(Br)ccc2c1C(=Cc1ccc(N(C)C)c3ccccc13)C(=O)N2 [10724/C02] | -0.3% | -9.0% | 40.7% |
| O=C1Nc2ccc(CCCl)cc2C1=Cc1ccc([N+](=O)[O-])c(O)c1 [10724/G04] | -7.9% | -12.4% | 71.0% |
| COC(=O)Cc1c(Cl)[nH]c(C=C2C(=O)Nc3ccc(I)cc32)c1C(=O)OC [10725/B09] | 0.4% | 43.8% | 65.7% |
| CN(C)c1ccc(C=C2C(=O)Nc3ccc(S(=O)(=O)Nc4ccc(C(F)(F)F)cc4)cc32)c2ccccc12 [10724/E02] | 17.7% | -54.2% | 55.4% |
| O=C1Nc2c(Br)cc(Br)cc2C1=Cc1ccc(N2CCOCC2)cc1 [10725/A08] | -2.9% | 14.1% | 45.3% |
| O=C1Nc2ccc(S(=O)(=O)N3CCOCC3)cc2C1=Cc1c[nH]c2ccccc12 [10717/F06] | 8.9% | – | 49.0% |
| O=C1Nc2ccc(I)cc2C1=Cc1c(Br)cnn1-c1ccc(Cl)cc1 [10725/B10] | 5.1% | 26.0% | 69.9% |
| CCOc1ccccc1C=C1C(=O)Nc2ccc(S(=O)(=O)N3CCOCC3)cc21 [10717/F02] | 2.2% | – | 30.4% |
| COc1cccc(O)c1C=C1C(=O)Nc2ccc(S(=O)(=O)Nc3ccc(C(F)(F)F)cc3)cc21 [10717/E10] | 4.7% | – | 35.9% |
| Cc1csc2sc(C=C3C(=O)Nc4c(Br)cc(Br)cc43)c(C)c12 [10724/A11] | 12.8% | 29.3% | 27.2% |
| O=C1Nc2c(Br)cc(Br)cc2C1=Cc1cccn1-c1ccc(Cl)cc1 [10724/A09] | -5.2% | 19.6% | 37.5% |
| COc1ccc(Br)c(C=C2C(=O)Nc3ccc(I)cc32)c1O [10725/B03] | 4.9% | 7.8% | 70.8% |
| O=C1Nc2c(Br)cc(Br)cc2C1=Cc1ccc([N+](=O)[O-])c(O)c1 [10724/A04] | -15.9% | 5.0% | 62.6% |
| O=C1Nc2ccc(S(=O)(=O)Nc3ccc(C(F)(F)F)cc3)cc2C1=Cc1ccc[nH]1 [10717/E09] | -1.1% | – | 19.2% |
| Cn1cccc1C=C1C(=O)Nc2ccc(S(=O)(=O)N3CCOCC3)cc21 [10717/F04] | -0.1% | – | 11.4% |
| Cn1cccc1C=C1C(=O)Nc2c(Br)cc(Br)cc21 [10717/A04] | -4.5% | – | 37.4% |
